According to US12390437B2, “Itaconic acid derivatives and uses thereof intreating an inflammatory disease or a disease associated with an undesirable immune response” (Sitryx Therapeutics Limited, priority 2019, dated 2025):
pEC50, pIC50: −log10 of the molar value. Where two headings read alike, the source gives them in different places.

Columns and labels:
NRF2 = NRF2 +/-GSH activation assay (DiscoverX PathHunter NRF2 translocation kit, U2OS cells); type: cell-based; conditions: for Emax: read-out: NRF2 activation Emax; for pEC50: read-out: NRF2 activation EC50
Description: Measuring Compound Activation Effects on the Anti-Inflammatory Transcription Factor NRF2 in DiscoverX PathHunter NRF2 Translocation Kit
Potency and efficacy of compounds of formula (IW-1) against the target of interest to activate NRF2 (nuclear factor erythroid 2-related factor 2) were determined using the PathHunter NRF2 translocation kit (DiscoverX). The NRF2 translocation assay was run using an engineered recombinant cell line, utilising enzyme fragment complementation to determine activation of the Keap1-NRF2 protein complex and subsequent translocation of NRF2 into the nucleus. Enzyme activity was quantified using a chemiluminescent substrate consumed following the formation of a functional enzyme upon PK-tagged NRF2 translocation into the nucleus.
The assay was run under either +/−GSH (glutathione) conditions to determine the attenuating activities of GSH against target compounds.
Additionally, a defined concentration of dimethyl fumarate was used as the ‘High’ control to normalise test compound activation responses to.
U2OS PathHunter eXpress cells were thawed from frozen prior to plating. Following plating, U2OS cells were incubated for 24 hrs (37° C./5% CO2) in commercial kit provided cell medium.
Following 24 hrs of U2OS incubation, cells were directly treated with an appropriate final concentration of compound, for −GSH conditions, or for +GSH conditions, an intermediate plate containing 6× working concentrations of compound stocks was prepared in a 6 mM working concentration of GSH solution (solubilised in sterile PBS). Following a 30 minute compound-GSH pre-incubation (37° C./5% CO2) for +GSH treatment, plated U2OS cells were incubated with an appropriate final concentration of compound and GSH.
Following compound (+/−GSH) treatment, the U2OS plates were incubated for a further 6 hours (37° C./5% CO2) before detection reagent from the PathHunter NRF2 commercial kit was prepared and added to test plates according to the manufacturer's instructions. Subsequently, the luminescence signal detection in a microplate reader was measured (PHERAstar®, BMG Labtech).
Percentage activation was calculated by normalising the sample data to the high and low controls used within each plate (+/−DMF). Percentage activation/response was then plotted against compound concentration and the 50% activation concentration (EC50) was determined from the plotted concentration-response curve.

[1] = test system: IL-1β cytokine output from THP-1s; assay: THP-1 AlphaLISA IL-1β cytokine assay; type: cell-based, human; conditions: read-out: IL-1β (IC50)
Description: Measuring Inhibitory Effects on IL-1β and IL-6 Cytokine Output from THP-1s
The cytokine inhibition profiles of compounds of formula (IW-1) were determined in a differentiated THP-1 cell assay. All assays were performed in RPMI-1640 growth medium (Gibco), supplemented with 10% fetal bovine serum (FBS; Gibco), 1% penicillin-streptomycin and 1% sodium pyruvate unless specified otherwise. The IL-1β and IL-6 cytokine inhibition assays were each run in a background of differentiated THP-1 cells as described below. All reagents described were from Sigma-Aldrich unless specified otherwise. Compounds were prepared as 10 mM DMSO stocks.
THP-1 cells were expanded as a suspension up to 80% confluence in appropriate growth medium. Cells were harvested, suspended, and treated with an appropriate concentration of phorbol 12-myristate 13-acetate (PMA) over a 72 hr period (37° C./5% CO2).
Following 72 hrs of THP-1 cell incubation, cellular medium was removed and replaced with fresh growth media containing 1% of FBS. Working concentrations of compounds were prepared separately in 10% FBS treated growth medium and pre-incubated with the cells for 30 minutes (37° C./5% CO2). Following the 30 minute compound pre-incubation, THP-1s were treated with an appropriate concentration of LPS and the THP-1s were subsequently incubated for a 24 hr period (37° C./5% CO2). An appropriate final concentration of Nigericin was then dispensed into the THP-1 plates and incubated for 1 hour (37° C./5% CO2) before THP-1 supernatants were harvested and collected in separate polypropylene 96-well holding plates.
Reagents from each of the IL-1β and IL-6 commercial kits (Perkin Elmer) were prepared and run according to the manufacturer's instructions. Subsequently, fluorescence signal detection in a microplate reader was measured (EnVision® Multilabel Reader, Perkin Elmer).
Percentage inhibition was calculated per cytokine by normalising the sample data to the high and low controls used within each plate (+/−LPS respectively). Percentage inhibition was then plotted against compound concentration and the 50% inhibitory concentration (IC50) was determined from the resultant concentration-response curve.

[2] = Mouse pharmacokinetic study, oral administration; type: in vivo; conditions: male, C57BL/6, mouse, plasma, po, 100 mg/kg, plasma, male C57BL/6 mice, oral gavage 100 mg/kg
Description: (§1) Pharmacokinetic studies were carried out in 6-8-week-old male C57BL/6 mice having free access to food and water. Intravenous dosing was conducted at 10 mg/kg (5 mL/kg; vehicle: 10% DMSO-90% (25% HP-13-CD in water)) via tail vein injection, with sampling at 3 min, 8 min, 15 min, 30 min, 1, 2, 4, 6 and 8 hours, i.e., 9 time points in total (N=3/time point), using semi-serial bleeding for plasma. Oral compound administration, via gavage, was carried out at 100 mg/kg (10 mL/kg; vehicle: 5% DMSO-95% (0.5% HPMC+0.1% Tween 80 in water)), with sampling at 5 min, 15 min, 30 min, 1, 2, 4, 6, 8 and 24 hours, i.e., 9 time points in total (N=3/time point), using semi-serial bleeding for plasma.
(§2) For both intravenous and oral routes, the mice were restrained manually at the designated time points, with ca. 110 μL of blood being taken into K2EDTA tubes via the facial vein. Blood samples were put on ice and centrifuged to obtain plasma samples from which the concentration at each time point was measured by LC-MS/MS.

[3] = Mouse pharmacokinetic study, intravenous dosing; type: in vivo; conditions: male, C57BL/6, mouse, iv, plasma, 10 mg/kg i.v., read-out: Parent compound concentration following intravenous administration
Description: as §1, §2

[4] = Homo sapiens, U2OS, normalised to dimethyl fumarate 'High' control, GSH condition not stated in Table 5
[5] = Homo sapiens, U2OS PathHunter cells, 6 hours, GSH condition not stated in Table 5
[6] = Homo sapiens, THP-1, PMA-differentiated THP-1 cells, LPS 24 hr then Nigericin 1 hour

Compound	Emax (NRF2; [4]) [%]	pEC50 (NRF2; [5])	pIC50 [1, 6]	also measured
C=C(CC(=O)OC1CCCCC1)C(=O)OC1CCN(S(C)(=O)=O)CC1 [Example 75, 4-cyclohexyl 1-(1-(methylsulfonyl)piperidin-4-yl) 2-methylenesuccinate]	143	4.76	4.95	–
C=C(CC(=O)OCCCCCC)C(=O)OCCc1nnn[nH]1 [Example 78, 1-(2-(1H-tetrazol-5-yl)ethyl) 4-hexyl 2-methylenesuccinate]	177	4.75	5.38	–
C=C(CC(=O)OCCCOc1ccccc1)C(=O)OCC(=O)O [Example 95, 2-((2-methylene-4-oxo-4-(3-phenoxypropoxy)butanoyl)oxy)acetic acid]	122	4.44	4.09	–
C=C(CC(=O)OC1CCCCCCC1)C(=O)OC(C(=O)O)C(F)(F)F (stereo not shown) [Example 122, 2-((4-(cyclooctyloxy)-2-methylene-4-oxobutanoyl)oxy)-3,3,3-trifluoropropanoic acid]	178	4.76	4.89	–
C=C(CC(=O)OC1CCCCC1)C(=O)OCCc1nnn[nH]1 [Example 128, 1-(2-(1H-tetrazol-5-yl)ethyl) 4-cyclohexyl 2-methylenesuccinate]	104	4.42	4.49	–
C=C(CC(=O)OC1CCCCCCC1)C(=O)OCCc1nnn[nH]1 [Example 130, 1-(2-(1H-tetrazol-5-yl)ethyl) 4-cyclooctyl 2-methylenesuccinate]	164	4.54	4.80	–
C=C(CC(=O)O[C@H](C)CCCCCC)C(=O)OCCc1nnn[nH]1 [Example 135, (R)-1-(2-(1H-tetrazol-5-yl)ethyl) 4-octan-2-yl 2-methylenesuccinate]	157	4.95	5.38	–
C=C(CC(=O)OC1CCCCCCC1)C(=O)OC1(CC(=O)OCC)COC1 [Example 137, 4-cyclooctyl 1-(3-(2-ethoxy-2-oxoethyl)oxetan-3-yl) 2-methylenesuccinate]	96	5.38	5.24	–
C=C(CC(=O)OC1CCCCCCC1)C(=O)OC(CC(=O)O)C(F)(F)F (stereo not shown) [Example 144, 3-((4-(cyclooctyloxy)-2-methylene-4-oxobutanoyl)oxy)-4,4,4-trifluorobutanoic acid]	176	5.68	5.77	–
C=C(CC(=O)OC1CCCCCC1)C(=O)OCC(=O)O [Example 145, 2-(4-(cycloheptyloxy)-2-methylene-4-oxobutanoyloxy)acetic acid]	–	–	–	pEC50 (NRF2; Homo sapiens, U2OS, 6 h): < 4.00; Emax (NRF2; Homo sapiens, U2OS): 7%; pIC50 ([1]; Homo sapiens, PMA-differentiated THP-1 cells, LPS 24 hr then Nigericin 1 hour): 4.71
C=C(CC(=O)O[C@H]1[C@@H]2CC[C@H]1CN(S(C)(=O)=O)C2)C(=O)O[C@H]1[C@@H]2CC[C@H]1CN(S(C)(=O)=O)C2 [Example 156, bis((endo)-3-(methylsulfonyl)-3-azabicyclo[3.2.1]octan-8-yl) 2-methylenesuccinate]	–	–	–	pEC50 (NRF2; U2OS PathHunter cells, 6 hours, GSH condition not stated in Table 5): 4.32; NRF2 activation Emax (NRF2; normalised to dimethyl fumarate 'High' control, GSH condition not stated in Table 5): 63%; pIC50 [1]: 4.55
C=C(CC(=O)OC(CCCC)CCCC)C(=O)OCC(=O)O [Example 175, 2-((2-methylene-4-(nonan-5-yloxy)-4-oxobutanoyl)oxy)acetic acid]	–	–	5.12	concentration at 0.083 h ([2]; 0.083 h, read-out: Parent compound concentrations following oral administration, Time 0.083 h): 39100 ng/mL; concentration at 0.25 h ([2]; 0.25 h, read-out: Parent compound concentrations following oral administration, Time 0.25 h): 19500 ng/mL; concentration at 0.5 h ([2]; 0.5 h, read-out: Parent compound concentrations following oral administration, Time 0.5 h): 18200 ng/mL; concentration at 1 h ([2]; 1 h, read-out: Parent compound concentrations following oral administration, Time 1 h): 5520 ng/mL; concentration at 2 h ([2]; 2 h, read-out: Parent compound concentrations following oral administration, Time 2 h): 1410 ng/mL; concentration at 4 h ([2]; 4 h, read-out: Parent compound concentrations following oral administration, Time 4 h): 2000 ng/mL; concentration at 6 h ([2]; 6 h, read-out: Parent compound concentrations following oral administration, Time 6 h): 784 ng/mL; concentration at 8 h ([2]; 8 h, read-out: Parent compound concentrations following oral administration, Time 8 h): 231 ng/mL; concentration at 24 h ([2]; 24 h, read-out: Parent compound concentrations following oral administration, Time 24 h): < 4 ng/mL; concentration at 0.05 h ([3]; time 0.05 h): 27500 ng/mL; concentration at 0.133 h ([3]; time 0.133 h): 11700 ng/mL; concentration at 0.25 h ([3]; time 0.25 h): 6110 ng/mL; concentration at 0.5 h ([3]; time 0.5 h): 1190 ng/mL; concentration at 1 h ([3]; time 1 h): 181 ng/mL; concentration at 2 h ([3]; time 2 h): 32 ng/mL; concentration at 4 h ([3]; time 4 h): < 4 ng/mL; concentration at 6 h ([3]; time 6 h): < 4 ng/mL; concentration at 8 h ([3]; time 8 h): < 4 ng/mL
